{"source": "patent US20220104486A1", "about": "(priority 2019, published 2022)", "test_system": "Fusarium graminearum", "type": "in vivo", "conditions": "seed treatment 0.3 mg ai/seed", "key": {"[1]": {"conditions": "corn, 36 days after planting, F. graminearum inoculum in furrow"}}, "note": "Like-named read-outs stand apart in the source and are kept apart here.", "data": [{"smiles": "O=C(NCCc1ncc(C(F)(F)F)cc1Cl)c1ccccc1C(F)(F)F", "note": "[Fluopyram]", "values": [{"measurement": "Count plant number per 12 row meter", "setting": "corn (Zea mays, variety N29t), plant stand 36 days after planting, F. graminearum inoculum in furrow, on base treatment", "value": "54.58, B per 12 row meter"}, {"measurement": "efficacy against Fusarium graminearum, in words", "setting": "corn field trial, high disease pressure", "value": "moderate control"}, {"measurement": "% efficacy based on loss of plants due to disease", "setting": "[1]", "value": 49.95, "unit": "%"}, {"measurement": "% loss of plants due to disease based on a maximum of 60 plants per 12 row meters", "setting": "[1]", "value": 9.03, "unit": "%"}, {"measurement": "% loss of plants due to disease based on a maximum of 60 plants per 12 row meters", "setting": "corn, 36 days after planting, F. graminearum inoculum in furrow, listed as commercial standard", "value": 9, "unit": "%"}]}]}
